Measurements reported in PubChem BioAssay AID200 (DTP/NCI, 2004).
Where “and” joins values, the source holds several entries; their conditions need not be identical. Equal entries are not always repeated. Toxic doses and inconclusive results are not listed. The calls were made as follows: active = survival T/C of 150% or more; inactive = T/C below 125% in these data. Where a SMILES comes first, the peptide text is derived from it. The star is where a group is joined. Cbz = O=C(OCc1ccccc1)*; Bn = c1ccc(C*)cc1

Tested on: B6C3F1 mice, B16 melanoma ip, median survival T/C
Assay: NCI In Vivo Anticancer Drug Screen. Data for tumor model B16 Melanoma (intraperitoneal) in B6C3F1 mice
Settings: endpoint: median survival time, higher = longer survival
Experimental: The antitumor activity of compounds was measured in mice bearing transplantable tumors. Survival or tumor size were measured and the results are expressed as the measurement made in the treated group (T) divided by the measurement made in the vehicle treated control group (C). The tumor model used in this assay is B16 Melanoma (intraperitoneal) in B6C3F1 mice

[1] = dose: 25.0 mg/kg/injection, schedule: Q01DX009 (ip), vehicle: Klucel (hydroxypropylcellulose) (HPC)
[2] = dose: 50.0 mg/kg/injection, schedule: Q01DX009 (ip), vehicle: Klucel (hydroxypropylcellulose) (HPC)
[3] = dose: 100.0 mg/kg/injection, schedule: Q01DX009 (ip), vehicle: Klucel (hydroxypropylcellulose) (HPC)
[4] = dose: 200.0 mg/kg/injection, schedule: Q01DX009 (ip), vehicle: Klucel (hydroxypropylcellulose) (HPC)
[5] = dose: 400.0 mg/kg/injection, schedule: Q01DX009 (ip), vehicle: Klucel (hydroxypropylcellulose) (HPC)
[6] = dose: 12.5 mg/kg/injection, schedule: Q01DX009 (ip), vehicle: saline
[7] = dose: 25.0 mg/kg/injection, schedule: Q01DX009 (ip), vehicle: saline
[8] = dose: 50.0 mg/kg/injection, schedule: Q01DX009 (ip), vehicle: saline with Tween-80
[9] = dose: 1.5 mg/kg/injection, schedule: Q01DX009 (ip), vehicle: Klucel (hydroxypropylcellulose) (HPC)
[10] = dose: 3.0 mg/kg/injection, schedule: Q01DX009 (ip), vehicle: Klucel (hydroxypropylcellulose) (HPC)
[11] = dose: 3.13 mg/kg/injection, schedule: Q01DX009 (ip), vehicle: Klucel (hydroxypropylcellulose) (HPC)
[12] = dose: 6.0 mg/kg/injection, schedule: Q01DX009 (ip), vehicle: Klucel (hydroxypropylcellulose) (HPC)
[13] = dose: 6.25 mg/kg/injection, schedule: Q01DX009 (ip), vehicle: Klucel (hydroxypropylcellulose) (HPC)
[14] = dose: 12.5 mg/kg/injection, schedule: Q01DX009 (ip), vehicle: Klucel (hydroxypropylcellulose) (HPC)
[15] = dose: 2.5 mg/kg/injection, schedule: Q01DX009 (ip), vehicle: Klucel (hydroxypropylcellulose) (HPC)
[16] = dose: 5.0 mg/kg/injection, schedule: Q01DX009 (ip), vehicle: Klucel (hydroxypropylcellulose) (HPC)
[17] = dose: 10.0 mg/kg/injection, schedule: Q01DX009 (ip), vehicle: Klucel (hydroxypropylcellulose) (HPC)
[18] = dose: 50.0 mg/kg/injection, schedule: Q01DX009 (ip), vehicle: saline
[19] = dose: 100.0 mg/kg/injection, schedule: Q01DX009 (ip), vehicle: saline
[20] = dose: 200.0 mg/kg/injection, schedule: Q01DX009 (ip), vehicle: saline
[21] = dose: 25.0 mg/kg/injection, schedule: Q01DX009 (ip), vehicle: saline with Tween-80
[22] = dose: 100.0 mg/kg/injection, schedule: Q01DX009 (ip), vehicle: saline with Tween-80
[23] = dose: 6.25 mg/kg/injection, schedule: Q01DX009 (ip), vehicle: saline with Tween-80
[24] = dose: 12.5 mg/kg/injection, schedule: Q01DX009 (ip), vehicle: saline with Tween-80

Measured: T/C

C=C1C(=O)OC2/C=C(\CO)C(OC(C)=O)CC(O)/C(C)=C/C(OC(=O)C(C)CC)C12 (centres undefined)
inactive: dose: 0.2 mg/kg/injection, schedule: Q01DX009 (ip), vehicle: Klucel (hydroxypropylcellulose) (HPC) 96 % of control | dose: 0.39 mg/kg/injection, schedule: Q01DX009 (ip), vehicle: Klucel (hydroxypropylcellulose) (HPC) 103 % of control | dose: 0.78 mg/kg/injection, schedule: Q01DX009 (ip), vehicle: Klucel (hydroxypropylcellulose) (HPC) 89 % of control and 103 % of control | dose: 1.56 mg/kg/injection, schedule: Q01DX009 (ip), vehicle: Klucel (hydroxypropylcellulose) (HPC) 110 % of control and 100 % of control

O=c1[nH]c(=O)n(C2CC(O)C(CO)O2)cc1Br (centres undefined)
inactive: [1] 92 % of control | [2] 110 % of control | [3] 110 % of control | [4] 116 % of control | [5] 114 % of control | dose: 800.0 mg/kg/injection, schedule: Q01DX009 (ip), vehicle: Klucel (hydroxypropylcellulose) (HPC) 109 % of control

CCCCCCCCCCCCCCCC[N+]1(C)CCN(SN2CC[N+](C)(CCCCCCCCCCCCCCCC)CC2)CC1
inactive: [6] 96 % of control | [7] 100 % of control | [8] 89 % of control

NC(CCl)=NCC12CC3CC(CC(C3)C1)C2
inactive: [9] 92 % of control | [10] 104 % of control | [11] 92 % of control | [12] 110 % of control and 101 % of control | [13] 101 % of control | dose: 12.0 mg/kg/injection, schedule: Q01DX009 (ip), vehicle: Klucel (hydroxypropylcellulose) (HPC) 114 % of control and 104 % of control | [14] 101 % of control | [1] 112 % of control

C[n+]1c(-c2cccc3ccccc23)c2cc(N)ccc2c2ccccc21
inactive: dose: 1.56 mg/kg/injection, schedule: Q01DX009 (ip), vehicle: saline 117 % of control | dose: 3.12 mg/kg/injection, schedule: Q01DX009 (ip), vehicle: saline 122 % of control | dose: 6.25 mg/kg/injection, schedule: Q01DX009 (ip), vehicle: saline 119 % of control

c1cc(OCC2CO2)ccc1OCC1CO1 (centres undefined)
inactive: [14] 109 % of control | [1] 121 % of control and 103 % of control | [2] 105 % of control | [4] 117 % of control

CC(=O)OCC1OC([S-])C(OC(C)=O)C(OC(C)=O)C1OC(C)=O.CC[PH+](CC)CC.CC[PH+](CC)CC.[Au].[Au] (centres undefined)
inactive: dose: 0.62 mg/kg/injection, schedule: Q01DX009 (ip), vehicle: Klucel (hydroxypropylcellulose) (HPC) 110 % of control and 105 % of control | dose: 1.25 mg/kg/injection, schedule: Q01DX009 (ip), vehicle: Klucel (hydroxypropylcellulose) (HPC) 109 % of control | [15] 98 % of control and 103 % of control | [16] 114 % of control and 97 % of control | [17] 92 % of control

C/C(=N\N=C(/[Se])N1CC2CCC(CC2)C1)c1ccccn1
inactive: dose: 0.75 mg/kg/injection, schedule: Q01DX009 (ip), vehicle: Klucel (hydroxypropylcellulose) (HPC) 112 % of control and 92 % of control and 108 % of control | [9] 111 % of control and 99 % of control | [10] 115 % of control and 100 % of control | [12] 120 % of control and 93 % of control and 100 % of control

O=C1OC(=O)[C@H]2[C@@H]1[C@H]1C=C[C@@H]2OC1=O
inactive: [6] 102 % of control | [7] 101 % of control | [18] 106 % of control | [19] 102 % of control | [20] 99 % of control

NC(=O)C(Cc1ccccc1)NC(=O)C(CSCc1ccccc1)NC(=O)OCc1ccccc1 (centres undefined) (Cbz-Cys(Bn)-Phe-NH2; configuration not given here)
inactive: [1] 91 % of control | [2] 109 % of control and 105 % of control | [3] 100 % of control and 103 % of control

Cc1nnc2ncccn12
inactive: [6] 97 % of control and 106 % of control | [7] 96 % of control and 103 % of control | [18] 98 % of control and 100 % of control | [19] 97 % of control and 103 % of control | [20] 94 % of control and 97 % of control | dose: 400.0 mg/kg/injection, schedule: Q01DX009 (ip), vehicle: saline 90 % of control and 102 % of control

N=c1c(C(=O)OCc2ccccc2)ncc(CCl)n1O
inactive: [21] 94 % of control | [8] 95 % of control | [22] 99 % of control

C=C1CCC2C(c3c(C)c(O)c4c(c31)C(=O)C(C)C4)C2(C)C (centres undefined)
inactive: [11] 102 % of control | [13] 89 % of control | [14] 95 % of control | [1] 89 % of control

O=C(NC(Cc1c[nH]c2ccccc12)C(=O)O)OCC1c2ccccc2-c2ccccc21 (centres undefined)
inactive: [1] 102 % of control | [2] 92 % of control | [3] 103 % of control

CCC(C)C(NC(=O)OCc1ccccc1)C(=O)NC(C(=O)O)C(C)C (stereo not drawn) (Cbz-Ile-Val-OH; configuration not given here)
inactive: [3] 91 % of control | [4] 94 % of control | [5] 94 % of control

Cc1ccc(C)c2c1CCC2C (centres undefined)
inactive: [8] 93 % of control | [22] 86 % of control

O=CC(S)CO (centres undefined)
inactive: [6] 107 % of control | [7] 111 % of control | [18] 123 % of control

CCN(CC)c1ccc2cc3ccc(=[N+](CC)CC)cc-3oc2c1
inactive: [15] 104 % of control | [16] 96 % of control | [17] 88 % of control

CCC(CC)COC(=O)c1ccccc1C(=O)OCC(CC)CC
inactive: dose: 3.12 mg/kg/injection, schedule: Q01DX009 (ip), vehicle: saline with Tween-80 98 % of control | [23] 97 % of control and 106 % of control | [24] 110 % of control and 90 % of control and 107 % of control | [21] 91 % of control and 96 % of control and 103 % of control | [8] 89 % of control and 96 % of control and 97 % of control | [22] 93 % of control and 97 % of control | dose: 200.0 mg/kg/injection, schedule: Q01DX009 (ip), vehicle: saline with Tween-80 106 % of control | dose: 400.0 mg/kg/injection, schedule: Q01DX009 (ip), vehicle: saline with Tween-80 104 % of control

CO[C@@]12[C@@H]3N[C@@H]3CN1C1=C(C(=O)C(NCC3CCCO3)=C(C)C1=O)[C@@H]2COC(N)=O (some centres undefined)
active: dose: 1.5 mg/kg/injection, schedule: Q04DX003 (ip), vehicle: distilled water + Tween-80 179 % of control | dose: 3.0 mg/kg/injection, schedule: Q04DX003 (ip), vehicle: distilled water + Tween-80 172 % of control and 173 % of control and 178 % of control | dose: 6.0 mg/kg/injection, schedule: Q04DX003 (ip), vehicle: distilled water + Tween-80 179 % of control and 207 % of control and 208 % of control | dose: 12.0 mg/kg/injection, schedule: Q04DX003 (ip), vehicle: distilled water + Tween-80 185 % of control and 223 % of control and 240 % of control | dose: 24.0 mg/kg/injection, schedule: Q04DX003 (ip), vehicle: distilled water + Tween-80 174 % of control and 258 % of control and 326 % of control

N#Cc1c(N)[nH]c2ccc(Sc3ccccc3)cc12
inactive: [23] 110 % of control | [24] 94 % of control | [21] 99 % of control | [8] 107 % of control
